Measured values published in PMC10545747, “Development of cyclopeptide inhibitors of cGAS targeting protein-DNA interaction and phase separation” (Nature Communications, 2023).
Several values for one entry are separate records, joined by “and”; a condition that tells them apart may be missing. Identical values can stand only once. Square brackets hold non-standard residues; d marks the D form. Peptide text beside a SMILES is read from it.

Assays:
[1] = Cell viability (CCK-8), cytotoxicity; details: human, THP1 cells
Protocol: (§1) Cell viability was measured by cell counting kit-8 (TargetMol) according to the manufacturer’s instructions.
(§2) Supplementary Fig. 2. […]
(§3) (e-g) THP1 cells (e), L929 cells (f) and RAW264.7 cells (g) were exposed to the indicated doses of XQ2 for 48h, the cell viability was measured by CCK8 assay. Data are representative of three independent experiments in (a-g). (Data are presented as mean ± SD, n = 3 independent samples in (a-g), **p < 0.01, ***p < 0.001, ****p < 0.0001 using one-way ANOVA with Dunnett’s post hoc test).
(§4) Source data are provided as a Source Data file. […]
(§5) Relative viability(%) XQ2B
(§6) Supplementary Fig. 7. […] (a) THP1 cells were exposed to the indicated doses of XQ2 or XQ2B for 48h. The cell viability was measured by CCK8 assay. […]
(§7) Data are representative of three independent experiments with similar results in (e), or three independent experiments in (a -d, f, g) . (Data are presented as mean ± SD, n = 3 independent samples in (a-d, f, g), ns, not significant, **p < 0.01, ***p < 0.001, ****p < 0.0001 using one-way ANOV A with Dunnett’s post hoc test). Source data are provided as a Source Data file.

[2] = tested on: THP1 cells; experiment: Cell viability (CCK-8), cytotoxicity; details: for Cell viability (Fig. S2e): THP1 (48h)
Protocol: as §1, §2, §3, §4, §5, §6, §7

[3] = tested on: Jurkat cells
Protocol: as §1
(§8) Supplementary Fig. 3. […] (a) L929 cells were pretreated for
(§9) 4 h with DMSO or the indicated doses of XQ2, followed by stimulation with dsDNA for 4 h, and then cell lysates were
(§10) (b) Jurkat cells were exposed to the indicated doses of XQ2, and then stimulated with
(§11) Data are representative of three independent experiments in (a, b). (Data are presented as mean ± SD, n = 3 independent
(§12) provided as a Source Data file.
(§13) (1 picture or pasted object on this page, not shown here)

[4] = tested on: THP1 cells stimulated with poly (I: C) (TLR3 and RIG-I/MDA-5 pathways); experiment: qPCR of IFNB1 mRNA in THP1 cells stimulated by poly (I: C); type: cell-based, human
Text: We next evaluated the inhibitory effect of XQ2 against cGAS in murine fibroblast L929 cells, macrophage RAW264.7 cells and primary bone marrow-derived macrophages (BMDMs) from C57BL/6 mice.
(§14) The indicated cells were stimulated with either ISD (Sangon Biotech), HSV-1 (Provided by Dr. Zhengfan Jiang), HSV60mer (Sangon Biotech), SATE-cddA[70], 2’3’-cGAMP (Invivogen, Cat# tlrl-nacga23-1), ADU-S100 (MedChemExpress, Cat# HY-12885A) or Poly(I:C) (Invivogen, Cat# tlrl-pic) after XQ2 or XQ2B treatment. Total RNA was isolated from indicated cells that incubated with the drugs for indicated time or mice tissues by using NucleoZOL reagent (MACHEREY-NAGEL) according to the manufacturer’s instructions. The quantifications of mRNA levels were carried out by real-time PCR using a PerfectStart® Uni RT&qPCR Kit (TransGen Biotech) on the QuantStudio 5 qPCR machine (Applied Biosystems). Samples were carried out in triplicate and the target CT values were normalized to GAPDH CT values. Primers of qPCR used in this study can be found in Supplementary Table S2.

[5] = tested on: HSV-1 in THP1 cells; experiment: HSV-1(UL5) mRNA by qPCR (virus infection of cells); type: cell-based, herpes simplex virus-1; design: key to HSV-1(UL5) mRNA, qPCR, Fig. 5d / HSV-1(UL5) mRNA (Fig. S8e): relative mRNA level, target CT normalized to GAPDH CT; details: for HSV-1(UL5) mRNA, qPCR, Fig. 5d: XQ2 10 μM
Protocol: as §14

[6] = tested on: L929 cells; experiment: ISD-induced autophagy, LC3-II immunoblotting; type: cell-based, mouse
Protocol: Total cell lysates were prepared in RIPA lysis buffer (Beyotime Biotechnology) supplemented with 1 mM PMSF and 1× protease inhibitor cocktail (Yeasen), and nuclear protein was extracted by nuclear protein extraction kit (Solarbio) in accordance with the manufacturer’s instructions. The samples were separated by SDS-PAGE and transferred to the PVDF membrane (Millipore). The membranes were incubated with the indicated primary antibodies at 4 °C overnight and then incubated with an HRP-conjugated anti-rabbit IgG antibody (Cell Signaling, Cat# 7074, 1:5000) or anti-mouse IgG antibody (Cell Signaling, Cat# 7076, 1:5000) at room temperature for 1 h. The signal was visualized by using the NcmECL Ultra kit (New Cell & Molecular Biotech) and then was exposed by using MiniChemi (SageCreation).
as §8, §9, §10, §11, §12, §13

Question: What does the source list for `CC(C)C[C@@H]1NC(=O)[C@H](CCCNC(=N)N)NC(=O)[C@H](C(C)C)NC(=O)[C@@H]2CCCN2C(=O)[C@@H](Cc2ccccc2)NC(=O)[C@H](CC(C)C)NC(=O)[C@H](CCCNC(=N)N)NC(=O)[C@H](C(C)C)NC(=O)[C@H](C)NC(=O)[C@@H](Cc2ccccc2)NC1=O` [XQ2, Cyclo (LfAVRLfPVR)] (cyclo(L[dF]AVRL[dF]PVR))?
Answer: viability at 48 h, 0.16 µM ([1]; Cell viability (Fig. S2e), THP1 (48h), XQ2 0.16 μM): 87.4%; viability at 48 h, 0.31 µM ([1]; Cell viability (Fig. S2e), THP1 (48h), XQ2 0.31 μM): 103%; viability at 48 h, 0.63 µM ([1]; Cell viability (Fig. S2e), THP1 (48h), XQ2 0.63 μM): 94.8%; viability at 48 h, 1.25 µM ([1]; Cell viability (Fig. S2e), THP1 (48h), XQ2 1.25 μM): 95.7%; viability at 48 h, 2.5 µM ([1]; Cell viability (Fig. S2e), THP1 (48h), XQ2 2.5 μM): 92.5%; viability at 48 h, 5 µM ([1]; Cell viability (Fig. S2e), THP1 (48h), XQ2 5 μM): 90.4%; viability at 48 h, 10 µM ([1]; Cell viability (Fig. S2e), THP1 (48h), XQ2 10 μM): 93.6%; viability at 48 h, 0.3125 µM ([1]; Cell viability (Fig. S7a), XQ2 312.5 nM): 103%; viability at 48 h, 0.625 µM ([1]; Cell viability (Fig. S7a), XQ2 625 nM): 94.8%; viability at 48 h, 1.25 µM ([1]; Cell viability (Fig. S7a), XQ2 1250 nM): 95.7%; viability at 48 h, 2.5 µM ([1]; Cell viability (Fig. S7a), XQ2 2500 nM): 92.5%; viability at 48 h, 5 µM ([1]; Cell viability (Fig. S7a), XQ2 5000 nM): 90.4%; viability at 48 h, 10 µM ([1]; Cell viability (Fig. S7a), XQ2 10000 nM): 93.6%; viability at 48 h, 20 µM ([1]; Cell viability (Fig. S7a), XQ2 20000 nM): 56.9%; viability at 48 h, 40 µM ([1]; Cell viability (Fig. S7a), XQ2 40000 nM): 4.01%; viability at 48 h, 80 µM ([1]; Cell viability (Fig. S7a), XQ2 80000 nM): 6.79%; viability at 48 h, 160 µM ([1]; Cell viability (Fig. S7a), XQ2 160000 nM): 6.84%; viability at 48 h, 320 µM ([1]; Cell viability (Fig. S7a), XQ2 320000 nM): 6.36%; Cell viability (Fig. S2e) ([2]; XQ2 0.16 μM): 87.186 and 98.2321; Cell viability (Fig. S2e) ([2]; XQ2 0.31 μM): 93.9161 and 92.7457; Cell viability (Fig. S2e) ([2]; XQ2 0.63 μM): 102.329 and 90.4779; Cell viability (Fig. S2e) ([2]; XQ2 1.25 μM): 94.1356 and 101.451; Cell viability (Fig. S2e) ([2]; XQ2 2.5 μM): 93.4772 and 103.426; Cell viability (Fig. S2e) ([2]; XQ2 5 μM): 89.1612 and 96.4765; Cell viability (Fig. S2e) ([2]; XQ2 10 μM): 102.841 and 97.9395; IC50 ([2]; read-out: IC50, cell viability (CCK8), Fig. S7a, THP1, 48h): 24.3 ± 8.9 µM; ISD-induced cell death [3]: markedly suppressed ISD-induced cell death; poly (I: C)-induced IFNB1 expression ([4]; THP1, 10 μM): did not affect the expression of IFNΒ1 induced by poly (I: C); IFNB1 mRNA, qPCR, Fig. 2b ([4]; THP1, Poly(I:C), 10 μM): 400.477 and 440.107 and 373.524; HSV-1 infection of THP1 cells, HSV1(UL5) mRNA ([5]; 10 μM): substantially facilitated HSV-1 infection of THP1 cells; HSV-1(UL5) mRNA, qPCR, Fig. 5d ([5]; HSV-1(1×104)24h): 1.256 and 1.311 and 1.284; HSV-1(UL5) mRNA, qPCR, Fig. 5d ([5]; HSV-1(1×104)48h): 9.927 and 7.927 and 10.0304; HSV-1(UL5) mRNA, qPCR, Fig. 5d ([5]; HSV-1(2×104)24h): 4.976 and 4.739 and 4.656; HSV-1(UL5) mRNA, qPCR, Fig. 5d ([5]; HSV-1(2×104)48h): 18.9511 and 21.7278 and 21.8028; ISD-induced autophagy, LC3-II formation [6]: significantly reduced ISD-induced autophagy; LC3-II relative gray ratio (normalized to GAPDH), Fig. S3a ([6]; ISD +, XQ2 5 μM): 1.62 and 1.737 and 1.498
